Reference: patent publication US7728043B2, “Methods for treatment of beta-amyloid protein-induced ocular disease” (priority 1999, dated 2010)
Entries after “also recorded” stand apart in the source; their conditions may differ.

How the values were obtained:
HUVEC cells = assay: MTT reduction assay, βA peptide-induced toxicity, HUVEC cells; assay type: cell-based, human
Procedure: (§1) The degree of βA insult was measured by 3-[4,5-dimethylthiazol-2-yl]-2,5-diphenyltetrazolium bromide (MTT) reduction assay. […] The detection of cell growth or cell death can be determined by observing the conversion of MTT to the colored product, MTT formazan, the concentration of which can be measured […] at 550 nm.
(§2) Cells were incubated in MTT solution (5 mg/ml) at 37° C. for 2 hours. During this time, cells were observed under a microscope every 15 min. Cells were incubated in Lysing buffer (100 μl) overnight at 37° C. Colorimetric determination of MTT reduction was made at 550 nm.
(§3) PC12 rat pheochromocytoma and IMR32 human neuroblastoma cells were obtained from the American Type Culture Collection (ATCC). HUVEC normal umbilical human vein endothelial cells were obtained from Clonetics (San Diego, Calif.). Cells were routinely cultured on a tissue culture plate (Corning, N.Y., N.Y.). PC12 cells were grown in high glucose Dulbecco's Modified Eagle Medium (DMEM), 10% horse serum, 5% fetal calf serum, and 1% penicillin/streptomycin. IMR32 cells were grown in 90% DMEM and 10% fetal calf serum with 1% penicillin/streptomycin. HUVEC cells were grown in EGM-2 Bullet Kit (Clonetics, San Diego, Calif.).

IMR32 cells = assay: MTT reduction assay, βA peptide-induced toxicity, IMR32 cells; assay type: cell-based, human
Procedure: as §1, §2, §3

[1] = Antioxidant assay, scavenging of DPPH free radicals; conditions: for Antioxidant activity (DPPH free radical scavenging), in words: optical density change of DPPH radicals at 515 nm
Procedure: Kim et al., Neurosci Lett 303, 57 (2001) and Barik et al., Free Radic Biol Med 39, 811 (2005).
Using an antioxidant assay, the antioxidant potency of the compounds of the invention was evaluated. 1,1-Diphenyl-2-picrylhydrazyl (DPPH) is known to generate stable free radicals in aqueous and ethanolic solutions. The ability of the compounds of the invention to scavenge these free radicals was measured by observing the optical density change of DPPH radicals at 515 nm. Kim et al., Neurosci Lett 303, 57 (2001) and Barik et al., Free Radic Biol Med 39, 811 (2005).
The samples were prepared in various concentrations (200, 20, 2.0, and 0.2 μg/ml) by serial dilution of a stock solution (5 mg/ml) and were tested by the following procedure. Reaction mixtures containing test compounds (dissolved in DMSO) and 300 μM DPPH ethanolic solution in 96-well microtiter plates were incubated at 37° C. for 30 min. and absorbance was measured at 515 nm. Percent inhibition by sample treatment was determined by comparison with a DMSO-treated […] control group. IC50 values were determined from percent inhibition by sample. IC50 values denote the concentration of the tested compound that was required to scavenge 50% of the DPPH free radicals.

[2] = test system: cells treated with βA peptide; assay: Protection of cells from βA peptide insult, statements in words (MTT assay, cells not singled out); assay type: cell-based; conditions: for Protection of cells from βA peptide-induced toxicity, in words: MTT reduction assay, PC12, IMR32, HUVEC cells where named in the sentence; for Microscopic analysis of βA peptide treated cells (MTT formazan granules in the cytosole): synthesized curcuminoid compounds, compared with positive and negative control
Procedure: as §1, §2

[3] = test system: primary cortical rat neuronal cells; assay: Protection of primary cortical neuronal cells against βA peptide (1-42) insult; assay type: cell-based; conditions: compound at 5 μg/ml; βA peptide (1-42) 10 μg/ml
Procedure: as §2
Primary cortical rat neuronal cells were obtained in the following manner. Dissociated primary neuronal cell cultures were established from 18-day-old Sprague-Dawley rat fetuses. The pups were delivered by caesarean section while the dam was anesthetized with ether. Hippocampal tissue from embryonic day 18 Sprague-Dawley rat pups was dissected and then rinsed in cold Ca^2+/Mg^2+-free Hank's balanced salt solution supplemented with 20 mM HEPES, 4.2 mM sodium bicarbonate, 1 mM pyruvate, and 3 mg/ml bovine serum albumin (BSA). Following gentle trituration of the tissue with a constricted pipette in cold buffer, two volumes of 10% fetal bovine serum (FBS) in DMEM were added to the suspension. After the suspension settled for 2 minutes, the supernatant was collected and centrifuged for 2 min. at 200×g. The cell pellets were resuspended in serum-free DMEM (pH 7.3), supplemented with 2.4 mg/ml BSA and a modification of Brewer's […] defined components (with 250 nM vitamin B12 and without catalase, glutathione, and superoxide dismutase). Cells were plated at a density of 15,000 cells/cm^2 and grown at 37° C. After 24 hours of incubation to allow cell attachment, the serum-containing medium was replaced by defined medium with DMEM/F12 containing bovine transferrin (100 μg/ml), bovine insulin (5 μg/ml), putrescine (0.1 mM), progesterone (10 nM), sodium selenite (30 nM), sodium pyruvate (1 mM), and potassium bicarbonate (15 mM). Cells maintained for extended periods of time were fed twice a week by replacing ⅓ of the medium with fresh medium.

PC12 cells = assay: MTT reduction assay, βA peptide-induced toxicity, PC12 cells; assay type: cell-based, rat
Procedure: as §1, §2, §3
PC12 cells were cultured routinely on polystyrene-coated Corning tissue culture plates. […] The 96-well plates were coated with rat tail collagen (Boehringer Mannheim) in order to promote uniform PC12 cell attachment and growth.

[4] = Partition coefficient between water and octane alcohol (log P); assay type: physicochemical
Procedure: According to this example, the ability of the compounds of the invention to pass through the blood brain barrier was measured. The ability of compounds to cross the blood brain barrier is represented by the log of the partition coefficient (P) of a molecule of the invention between water and octane alcohol. […] Accordingly, the octane alcohol fraction contained more than 1000 times as much of the compounds as the water fraction. […] See Hau et al., Regul Toxicol Pharmacol 35, 273 (2002) and Salminen et al., J Pharm Biomed Anal 15, 469 (1997).

[5] = Table 1, turmeric-derived natural product compounds
[6] = Table 1, turmeric-derived natural product compounds, scavenging 50% of DPPH free radicals
[7] = Table 1, turmeric-derived natural product compounds, concentration for 50% cell viability
[8] = Table 3, ginger-derived natural product compounds
[9] = Table 2, synthesized curcuminoids
[10] = Table 2, synthesized curcuminoids, DPPH

Row | Compound | Anti-βA peptide(1-42) ED50 HUVEC (HUVEC cells; [5]) [µg/mL] | Anti-βA peptide(25-35) ED50 HUVEC (HUVEC cells; [5]) [µg/mL] | Anti-βA peptide(25-35) ED50 IMR32 (IMR32 cells; [5]) [µg/mL] | Antioxidant IC50 [1, 6] [µg/mL] | Antioxidant activity (DPPH free radical scavenging), in words [1] | Protection of cells from βA peptide-induced toxicity, in words [2] | Protection of primary cortical neuronal cells against βA peptide (1-42) insult [3] | Anti-βA peptide(1-42) ED50 PC12 (PC12 cells; [5]) [µg/mL] | Anti-βA peptide(25-35) ED50 PC12 (PC12 cells; [7]) [µg/mL] | also measured
1 | COc1cc(C=CC(=O)CC(=O)C=Cc2ccc(O)cc2)ccc1O [Compound 2, 1-(4-hydroxy-3-methoxyphenyl)-7-(4-hydroxyphenyl)-1,6-heptadiene-3,5-dione] | 5.0 | 4.5 | 4.0 | 36.2 | strong antioxidant activity | protected | protected | 5.0 | 4.0 | 
2 | COc1cc(/C=C/C(=O)COC(=O)/C=C/c2ccc(O)c(OC)c2)ccc1O [Compound 6, 4″-(3′″-methoxy-4′″-hydroxyphenyl)-2″-oxo-3″-enebutanyl 3-(3′-methoxy-4′-hydroxyphenyl)propenoate] | 1.0 | 1.5 | 1.0 | >200 |  | protected | protected | 2.0 | 1.0 | 
3 | CCC/C=C/C(=O)CCc1ccc(O)c(OC)c1 [Compound 11] |  |  |  |  | None of these compounds exhibited significant antioxidant activity | effectively protected |  |  |  | Anti-βA peptide(1-42) ED50 HUVEC (HUVEC cells; [8]): 20 µg/mL; Anti-βA peptide(25-35) ED50 HUVEC (HUVEC cells; [8]): 20 µg/mL; Anti-βA peptide(25-35) ED50 IMR32 (IMR32 cells; [8]): 15 µg/mL; Anti-βA peptide(1-42) ED50 PC12 (PC12 cells; [8]): 12 µg/mL; Anti-βA peptide(25-35) ED50 PC12 (PC12 cells; [8]): 15 µg/mL
4 | O=C(C=Cc1ccc(O)cc1)CC(=O)C=Cc1ccc(O)cc1 [Compound 3, 1,7-bis(4-hydroxyphenyl)-1,6-heptadiene-3,5-dione] | 2.0 | 2.4 | 2.5 | >200 | significant antioxidant activity | protected | protected | 3.5 | 2.0 | Anti-βA peptide(1-42) ED50 IMR32 (IMR32 cells; [9]): 3.5 µg/mL; Anti-βA peptide(25-35) ED50 IMR32 (IMR32 cells; [9]): 3.0 µg/mL; Antioxidant IC50 [1, 10]: 32.6 µg/mL; Microscopic analysis of βA peptide treated cells (MTT formazan granules in the cytosole) [2]: effectively protect; Anti-βA peptide(1-42) ED50 PC12 (PC12 cells; [9]): 4.5 µg/mL; Anti-βA peptide(25-35) ED50 PC12 (PC12 cells; [9]): 3.0 µg/mL; logP [4]: 3.1
5 | O=C(C=C(O)C=Cc1ccc(O)c(O)c1)CCc1ccc(O)cc1 [Compound 5] | 1.5 | 2.0 | 1.5 | >200 |  | protected | protected | 3.0 | 2.5 | 
6 | CCCCC/C=C/C(=O)CCc1ccc(O)c(OC)c1 [Compound 12] |  |  |  |  | None of these compounds exhibited significant antioxidant activity | effectively protected |  |  |  | Anti-βA peptide(1-42) ED50 HUVEC (HUVEC cells; [8]): 18 µg/mL; Anti-βA peptide(25-35) ED50 HUVEC (HUVEC cells; [8]): 20 µg/mL; Anti-βA peptide(25-35) ED50 IMR32 (IMR32 cells; [8]): 8.0 µg/mL; Anti-βA peptide(1-42) ED50 PC12 (PC12 cells; [8]): 10 µg/mL; Anti-βA peptide(25-35) ED50 PC12 (PC12 cells; [8]): 9.0 µg/mL
7 | O=C(C=Cc1ccc(O)cc1)CC(=O)CCc1ccc(O)cc1 [Compound 4, 1,7-bis(4-hydroxyphenyl)-1-heptene-3,5-dione] | 1.0 | 0.8 | 1.2 | >200 |  | protected; also recorded: best protection | protected | 1.0 | 0.5 | Anti-βA peptide(1-42) ED50 IMR32 (IMR32 cells; [9]): 2.0 µg/mL; Anti-βA peptide(25-35) ED50 IMR32 (IMR32 cells; [9]): 1.5 µg/mL; Antioxidant IC50 [1, 10]: >200 µg/mL; Microscopic analysis of βA peptide treated cells (MTT formazan granules in the cytosole) [2]: effectively protect; Anti-βA peptide(1-42) ED50 PC12 (PC12 cells; [9]): 1.0 µg/mL; Anti-βA peptide(25-35) ED50 PC12 (PC12 cells; [9]): 0.5 µg/mL
